The values that follow come from patent US8304422B2, “Compositions and methods for inhibition of the JAK pathway” (Rigel Pharmaceuticals, Inc., priority 2007, dated 2012).

In this experiment the test system is BaF3 V617F cells; UKE-1. Briefly: Proliferation Assay (Cell Titer-Glo; Example 7). Type of experiment: cell-based. The following applies: proliferation 72 hours, inhibit JAK2 activity, cell line (BaF3 V617F or UKE-1) not stated. Summed up:
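BaF3 V617F cells (RPMI, 10% FBS) and UKE-1 cells (Iscove's DMEM, 10% FBS, 10% equine serum, 1 uM hydrocortisone) were exposed to 3-fold serially diluted compound in duplicate for 72 hours at 37 °C. Viable cell number quantified by Cell Titer-Glo luminescence; IC50 reported.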
In the case of `CCNS(=O)(=O)NCc1cccc(Nc2nc(Nc3ccc(N4CCN(C)CC4)cc3)ncc2Cl)c1` [II-131, 5-Chloro-N4-[(3-(ethylamino)sulfonylamino)methylphenyl]-N2-[4-(4-methyl-1-piperazinyl)phenyl]-2,4-pyrimidinediamine], the IC50 (as a rule, the concentration that inhibits the measured activity by half) worked out at 151 nM. Then `Cc1cc(Nc2ncc(C)c(Nc3ccc(CNS(=O)(=O)NC4CC4)cc3)n2)ccc1N1CCN(C)CC1` [II-172, N4-[4-((N-Cyclopropylamino)sulfonylamino)methylphenyl]-5-methyl-N2-[3-methyl-4-(4-methyl-1-piperazinyl)phenyl]-2,4-pyrimidinediamine], with 2260 nM; and “5-Chloro-N4-[4-(N-Cyclopropylsulfonylamino)methylphenyl]-N2-[3-methyl-4-[(1S,4S)-5-methyl-2,5-diazabicyclo[2.2.1]hept-2-yl]phenyl]-2,4-pyrimidinediamine [II-185]”, with 110 nM.

In the case of `Cc1cnc(Nc2ccc(-c3cccnc3)cc2)nc1Nc1ccc2c(c1)[C@H](NS(C)(=O)=O)CC2` [V-12, (1R)-5-Methyl-N4-[1-(methylsulfonyl)aminoindan-6-yl]-N2-[4-(3-pyridinyl)phenyl]-2,4-pyrimidinediamine], the IC50 came out at 668 nM. This IC50 lies about 6.1-fold higher than the previous one.

For the molecule `CN1CCN(c2ccncc2Nc2ncc(Cl)c(Nc3ccc(CNS(=O)(=O)C4CC4)cc3)n2)CC1` [II-216, 5-Chloro-N4-[4-(N-cyclopropylsulfonylamino)methylphenyl]-N2-[4-(N-methylpiperizin-4-yl)pyridine-3-yl]-2,4-pyrimidinediamine], inhibition was half-maximal at 246 nM (IC50). Then `COc1c(C)cc(Nc2ncc(Cl)c(Nc3ccc(CNS(=O)(=O)C4CC4)cc3)n2)cc1Cl` [II-80, 5-Chloro-N2-(3-chloro-4-methoxy-5-methylphenyl]-N4-[4-(N-cyclopropylsulfonylamino)methylphenyl]-2,4-pyrimidinediamine], with 188 nM; and `Cc1cc(N2CCN(C)CC2)ccc1Nc1ncc(Cl)c(Nc2ccc(CCNS(=O)(=O)C3CC3)cc2)n1` [II-52, 5-Chloro-N4[4-(N-cyclopropylsulfonylamino)ethylphenyl]-N2-[4-(4-methylpiperazino)-2-methylphenyl]-2,4-pyrimidinediamine], with 6120 nM. “5-Chloro-N2-(3,5-dimethyl-5-methoxyphenyl)-N4-[(4-(dimethylamino)sulfonylamino)methylphenyl]-2,4-pyrimidinediamine [II-90]” had an IC50 of 83.6 nM. Against the preceding molecule, the IC50 is about 73-fold lower. Then `CCN1CCN(c2ccc(Nc3ncc(C)c(Nc4ccc(CCNS(=O)(=O)C5CC5)cc4)n3)c(C(F)(F)F)c2)CC1` [II-74], with 1490 nM. For `Cc1cnc(Nc2ccc(N3CCN(C)CC3)cc2)nc1Nc1ccc2c(c1)[C@H](NS(C)(=O)=O)CC2` [V-14, (1R)-5-Methyl-N2-[4-(4-methyl-1-piperazinyl)phenyl]-N4-[1-(methylsulfonyl)aminoindan-6-yl]-2,4-pyrimidinediamine], the IC50 was determined as 2690 nM.

As for “5-Chloro-N4-[3-(N-tert-butylsulfonyl)phenyl]-N2-[3,4-trimethyl-4-methoxyphenyl]-2,4-pyrimidinediamine [I-16]”, the IC50 is 17700 nM. Compared with the last molecule, the IC50 is about 6.6-fold higher. As for `CCNS(=O)(=O)NCc1ccc(Nc2nc(Nc3cc(C)c(OC)c(C)c3)ncc2Cl)cc1` [II-108, 5-chloro-N2-(3,5-Dimethyl-4-methoxyphenyl)-N4-[(4-(ethylamino)sulfonylamino)methylphenyl]-2,4-pyrimidinediamine], the IC50 was determined as 85 nM.

Consider “5-Chloro-N4-[4-(N-cyclopropylsulfonylamino)methylphenyl]-N2-[4-(N-ethylpiperizin-4-yl)phenyl]-2,4-pyrimidinediamine [II-205]”, for which the IC50 was 135 nM.

For the molecule `CCOc1c(C)cc(Nc2ncc(C)c(Nc3ccc(CNS(=O)(=O)C4CC4)cc3)n2)cc1C` [II-214, 5-Methyl-N4-[4-(N-cyclopropylsulfonylamino)methylphenyl]-N2-[3,5-dimethyl-4-ethoxyphenyl]-2,4-pyrimidinediamine], the IC50 was determined as 55.6 nM. In the case of `O=S(=O)(NCCc1ccc(Nc2nc(Nc3ccc(-c4ccccc4)cc3)ncc2Cl)cc1)C1CC1` [II-58, 5-Chloro-N4[4-(N-cyclopropylsulfonylamino)ethylphenyl]-N2-[4-biphenyl]-2,4-pyrimidinediamine], the midpoint of inhibition, the IC50, lay at 16200 nM. The figure for `COc1cc(Nc2ncc(F)c(Nc3ccc(CNS(=O)(=O)C4CC4)cc3)n2)cc(C)c1OC` [II-195, 5-Fluoro-N4-[4-(N-cyclopropylsulfonylamino)methylphenyl]-N2-[3,4-dimethoxy-5-methylphenyl]-2,4-pyrimidinediamine] is 180 nM; for “5-Methyl-N4-[4-(N-cyclopropylsulfonylamino)methylphenyl]-N2-[4-(1-morpholinomethyl)phenyl]-2,4-pyrimidinediamine [II-222]” it is 946 nM. `COc1c(C)cc(Nc2ncc(C)c(Nc3ccc4c(c3)S(=O)(=O)NCC4)n2)cc1C` [VII-10, 5-Methyl-N4-[3,4-dihydro-1,1-dioxide-2H-1,2-benzothiazin-7-yl]-N2-[3,5-dimethyl-4-methoxyphenyl]-2,4-pyrimidinediamine] came in with an IC50 of 144 nM. As for `CC(C)(C)Oc1ccc(Nc2ncc(Cl)c(Nc3ccc(CCNS(=O)(=O)C4CC4)cc3)n2)cc1` [II-47, 5-Chloro-N4[4-(N-cyclopropylsulfonylamino)ethylphenyl]-N2-[4-(2,6-dimethyl-ethoxy)phenyl]-2,4-pyrimidinediamine], half-maximal inhibition (IC50) was put at 487 nM. The molecule `Cc1cc(CNS(=O)(=O)NC2CC2)ccc1Nc1nc(Nc2cc(C)c(OC(C)C)c(C)c2)ncc1Cl` [II-177, 5-Chloro-N2-(3,5-dimethyl-4-(1-methylethoxy)phenyl)-N4-[2-methyl-4-((N-cyclopropylamino)sulfonylamino)methylphenyl]-2,4-pyrimidinediamine] showed a half-inhibitory concentration (IC50) of 643 nM. This IC50 and that of the molecule before are within 1.5-fold of each other. Then “5-Chloro-N4-[(4-(dimethylamino)sulfonylamino)methylphenyl]-N2-[3,4,5-trimethoxyphenyl)-2,4-pyrimidinediamine [II-95]”, with 250 nM.

`Cc1cnc(Nc2ccc(C3CCN(C)CC3)cc2)nc1Nc1ccc(CNS(=O)(=O)N(C)C)cc1` [II-106, N4-[(4-(Dimethylamino)sulfonylamino)methylphenyl]-5-methyl-N2-[4-(1-methyl-4-piperidinyl)pheny]-2,4-pyrimidinediamine] gave an IC50 of 383 nM.

In turn, `Cc1cc(Nc2ncc(Cl)c(Nc3ccc(CNS(=O)(=O)C4CC4)cc3)n2)cc(C)c1OC(C)C` [II-220, 5-Chloro-N4-[4-(N-cyclopropylsulfonylamino)methylphenyl]-N2-[3,5-dimethyl-4-(2-propoxy)phenyl]-2,4-pyrimidinediamine] had an IC50 of 121 nM. Against the preceding molecule, the IC50 is about 3.2-fold lower. Then `COc1c(Cl)cc(Nc2ncc(C)c(Nc3ccc4c(c3)C(NS(=O)(=O)C3CC3)CC4)n2)cc1Cl` (racemic) [V-8, (+/−)-N4-[1-(Cyclopropylsulfonylamino)indan-6-yl]-N2-(3,5-dichloro-4-methoxyphenyl)-5-methyl-2,4-pyrimidinediamine], with 3030 nM; and `COc1c(C)cc(Nc2ncc(Cl)c(Nc3ccc(CNS(=O)(=O)N(C)C)cc3)n2)cc1Cl` [II-93, 5-Chloro-N2-(3-chloro-4-methoxy-5-methylphenyl)-N4-[(4-(dimethylamino)sulfonylamino)methylphenyl]-2,4-pyrimidinediamine], with 350 nM.

`Cc1cnc(Nc2ccc(N3CCN(C)CC3)cc2F)nc1Nc1ccc(CCNS(=O)(=O)C2CC2)cc1` [II-73] yielded an IC50 of 595 nM. On to `Cc1cnc(Nc2ccc(N3CCN(S(C)(=O)=O)CC3)cc2C(F)(F)F)nc1Nc1ccc(CCNS(=O)(=O)C2CC2)cc1` [II-72], for which the IC50 worked out at 18300 nM. Then “5-Chloro-N4-[3-(N-cyclopropylsulfonylamino)methylphenyl]-N2-[4-(N-methylpiperizin-4-yl)phenyl]-2,4-pyrimidinediamine [II-191]”, with 466 nM. With `CN1CCN(c2ccc(Nc3ncc(Cl)c(Nc4ccc(CCNS(=O)(=O)C5CC5)cc4)n3)c(F)c2)CC1` [II-56, 5-Chloro-N4[4-(N-cyclopropylsulfonylamino)ethylphenyl]-N2-[4-(4-methylpiperazino)-2-fluorophenyl]-2,4-pyrimidinediamine], the concentration for half-maximal inhibition (IC50) stood at 639 nM. `CN1CCN(c2ccc(Nc3ncc(Cl)c(Nc4ccc(CNS(=O)(=O)NC5CC5)cc4)n3)cc2)CC1` [II-167, 5-Chloro-N4-[4-((N-cyclopropylamino)sulfonylamino)methylphenyl]-N2-[4-(4-methyl-1-piperazinyl)phenyl]-2,4-pyrimidinediamine] returned an IC50 of 205 nM. Compared with the last molecule, the IC50 is about 3.1-fold lower. The figure for `CCN1CCN(c2ccc(Nc3ncc(Cl)c(Nc4ccc(CCNS(=O)(=O)C5CC5)cc4)n3)c(C(F)(F)F)c2)CC1` [II-57, 5-Chloro-N4[4-(N-cyclopropylsulfonylamino)ethylphenyl]-N2-[4-(4-ethylpiperazino)-2-trifluoromethylphenyl]-2,4-pyrimidinediamine] is 1700 nM. With `Cc1cc(CNS(=O)(=O)C2CC2)ccc1Nc1nc(Nc2ccc(N3CCN(C)CC3)cc2)ncc1Cl` [II-152, 5-Chloro-N4-[2-methyl-4-(N-cyclopropylsulfonylamino)methylphenyl]-N2-[4-(4-methyl-1-piperazinyl)phenyl]-2,4-pyrimidinediamine], the IC50 came to 357 nM. Turning to `Cc1cnc(Nc2cc(C3CC3)n[nH]2)nc1Nc1ccc(CNS(=O)(=O)C2CC2)cc1` [VIII-11, 5-Methyl-N4-[4-(N-cyclopropylsulfonylamino)methylphenyl]-N2-[5-cyclopropylpyrazol-3-yl)-2,4-pyrimidinediamine], the IC50 was 388 nM. The figure for `CCN1CCN(c2ccc(Nc3ncc(C)c(Nc4ccc(CNS(=O)(=O)C5CC5)cc4)n3)cc2)CC1` [II-204, 5-Methyl-N4-[4-(N-cyclopropylsulfonylamino)methylphenyl]-N2-[4-(N-ethylpiperizin-4-yl)phenyl]-2,4-pyrimidinediamine] is 175 nM.
